#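 Test compounds were applied to cells in 96-well plates for 48 hours at 5 doses. GI50 = concentration required for 50% inhibition of growth. The concentration for full growth arrest is given as TGI.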
# Key:
# Experiment in all cases: NCI anticancer screen, dose series, 48 h
# [1] = test system: SF-539 CNS
# [2] = test system: MCF7 breast
# [3] = test system: HOP-92 NSCLC
# [4] = test system: COLO 205 colon
# [5] = test system: A549 NSCLC
# [6] = test system: SK-OV-3 ovarian
# [7] = test system: SK-MEL-28 melanoma
# [8] = test system: BT-549 breast
# [9] = test system: HCT-15 colon
# [10] = test system: MDA-MB-435
# [11] = test system: RXF 393 renal
# [12] = test system: MALME-3M melanoma
# [13] = test system: K-562 leukemia
# [14] = test system: NCI-H460 lung
# [15] = test system: ACHN renal
# [16] = test system: U251 CNS
# [17] = test system: SK-MEL-5 melanoma
# [18] = test system: TK-10 renal
# [19] = test system: UO-31 renal
# [20] = test system: HCT-116 colon
# [21] = test system: HOP-62 NSCLC
# [22] = test system: OVCAR-8 ovarian
# [23] = test system: HL-60(TB) leukemia
# [24] = test system: UACC-62 melanoma
# [25] = test system: T-47D breast
# [26] = test system: MDA-MB-231 breast
# [27] = test system: SNB-19 CNS
# [28] = test system: RPMI-8226 leukemia
# [29] = test system: NCI/ADR-RES ovarian
smiles,measurement,setting,value
c1ccc(CSc2nnc3c4c5c(sc4nc(-c4cccnc4)n23)CCCCCC5)cc1,TGI,[1],12.9 µM
same,GI50,[2],2.64 µM
same,TGI,[2],11.2 µM
same,GI50,[3],1.7 µM
same,TGI,[3],7.24 µM
same,GI50,[4],1.55 µM
same,TGI,[4],3.33 µM
same,GI50,[5],2.8 µM
same,TGI,[5],13.4 µM
same,GI50,[6],2.75 µM
same,TGI,[6],9.54 µM
same,GI50,[7],3.35 µM
same,TGI,[7],14.1 µM
same,GI50,[8],2.8 µM
same,TGI,[8],9.04 µM
same,GI50,[9],4.51 µM
same,TGI,[9],17 µM
same,GI50,[10],2.61 µM
same,TGI,[10],9.88 µM
same,GI50,[11],2.79 µM
same,TGI,[11],13.1 µM
same,GI50,[12],2.76 µM
same,TGI,[12],7.52 µM
same,GI50,[13],2.34 µM
same,TGI,[13],10.4 µM
same,GI50,[14],2.97 µM
same,TGI,[14],11.1 µM
same,GI50,[15],2.98 µM
same,TGI,[15],10.5 µM
same,GI50,[16],2.2 µM
same,TGI,[16],12 µM
same,GI50,[17],1.37 µM
same,TGI,[17],2.68 µM
same,GI50,[18],3.83 µM
same,TGI,[18],12.6 µM
same,GI50,[19],3.73 µM
same,TGI,[19],15.1 µM
same,GI50,[20],2.77 µM
same,TGI,[20],11.3 µM
same,GI50,[21],2.96 µM
same,TGI,[21],12.3 µM
same,GI50,[22],2.86 µM
same,TGI,[22],13.2 µM
same,GI50,[23],1.84 µM
same,TGI,[23],5.27 µM
same,GI50,[24],1.91 µM
same,TGI,[24],7.23 µM
same,GI50,[25],0.495 µM
same,TGI,[25],12.3 µM
same,GI50,[26],2.18 µM
same,TGI,[26],7.15 µM
same,GI50,[27],3.96 µM
same,TGI,[27],16.2 µM
same,GI50,[28],1.87 µM
same,TGI,[28],12.5 µM
same,GI50,[29],14.1 µM
same,TGI,[29],38.1 µM
